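Five concentrations, 48 hours, 96-well plates. At the TGI there is no net growth.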
Assays:
Experiment in all cases: NCI-60 cell line screen, 48 h
SF-539 CNS = system: SF-539 CNS
SNB-75 CNS = system: SNB-75 CNS
EKVX NSCLC = system: EKVX NSCLC
SF-268 CNS = system: SF-268 CNS
SK-MEL-2 melanoma = system: SK-MEL-2 melanoma
HT29 colon = system: HT29 colon
COLO 205 colon = system: COLO 205 colon
HCT-15 colon = system: HCT-15 colon
786-0 renal = system: 786-0 renal
CAKI-1 renal = system: CAKI-1 renal
OVCAR-8 ovarian = system: OVCAR-8 ovarian
OVCAR-5 ovarian = system: OVCAR-5 ovarian
HL-60(TB) leukemia = system: HL-60(TB) leukemia
HCC-2998 colon = system: HCC-2998 colon
NCI-H23 lung = system: NCI-H23 lung
UO-31 renal = system: UO-31 renal
HS 578T breast = system: HS 578T breast
NCI-H460 lung = system: NCI-H460 lung
OVCAR-3 ovarian = system: OVCAR-3 ovarian
MDA-N = system: MDA-N
T-47D breast = system: T-47D breast
UACC-62 melanoma = system: UACC-62 melanoma
HOP-92 NSCLC = system: HOP-92 NSCLC
ACHN renal = system: ACHN renal
SF-295 CNS = system: SF-295 CNS
M14 melanoma = system: M14 melanoma
UACC-257 melanoma = system: UACC-257 melanoma
PC-3 prostate = system: PC-3 prostate
OVCAR-4 ovarian = system: OVCAR-4 ovarian
MCF7 breast = system: MCF7 breast
SW-620 colon = system: SW-620 colon
SK-MEL-28 melanoma = system: SK-MEL-28 melanoma
TK-10 renal = system: TK-10 renal
U251 CNS = system: U251 CNS
SR leukemia = system: SR leukemia
A549 NSCLC = system: A549 NSCLC
HOP-62 NSCLC = system: HOP-62 NSCLC
SK-MEL-5 melanoma = system: SK-MEL-5 melanoma
NCI-H522 lung = system: NCI-H522 lung
SNB-19 CNS = system: SNB-19 CNS
MDA-MB-231 breast = system: MDA-MB-231 breast
CCRF-CEM leukemia = system: CCRF-CEM leukemia
SN12C renal = system: SN12C renal
RXF 393 renal = system: RXF 393 renal
MDA-MB-435 = system: MDA-MB-435
KM12 colon = system: KM12 colon
MOLT-4 leukemia = system: MOLT-4 leukemia
NCI/ADR-RES ovarian = system: NCI/ADR-RES ovarian
BT-549 breast = system: BT-549 breast
HCT-116 colon = system: HCT-116 colon
IGROV1 ovarian = system: IGROV1 ovarian
A498 renal = system: A498 renal
LOX IMVI melanoma = system: LOX IMVI melanoma
K-562 leukemia = system: K-562 leukemia
DU-145 prostate = system: DU-145 prostate

Measured: TGI

CC(C)N(C(=O)C12C3(C(=O)OC(C)(C)C)C4C5(C#N)C3C1(C(=O)OC(C)(C)C)C5C42C(=O)OC(C)(C)C)C(C)C (stereo not given)
> 100 µM: SF-539 CNS | EKVX NSCLC | SF-268 CNS | SK-MEL-2 melanoma | HT29 colon | COLO 205 colon | HCT-15 colon | 786-0 renal | CAKI-1 renal | OVCAR-8 ovarian | OVCAR-5 ovarian | HL-60(TB) leukemia | HCC-2998 colon | NCI-H23 lung | UO-31 renal | HS 578T breast | NCI-H460 lung | OVCAR-3 ovarian | MDA-N | T-47D breast | UACC-62 melanoma | HOP-92 NSCLC | ACHN renal | SF-295 CNS | M14 melanoma | UACC-257 melanoma | PC-3 prostate | OVCAR-4 ovarian | SW-620 colon | SK-MEL-28 melanoma | TK-10 renal | U251 CNS | A549 NSCLC | HOP-62 NSCLC | SK-MEL-5 melanoma | NCI-H522 lung | SNB-19 CNS | MDA-MB-231 breast | SN12C renal | RXF 393 renal | MDA-MB-435 | KM12 colon | NCI/ADR-RES ovarian | BT-549 breast | IGROV1 ovarian | A498 renal | K-562 leukemia | DU-145 prostate
29 µM: LOX IMVI melanoma
30.9 µM: CCRF-CEM leukemia
43.9 µM: MCF7 breast
73.5 µM: HCT-116 colon
41.8 µM: SNB-75 CNS
69.6 µM: SR leukemia
40.1 µM: MOLT-4 leukemia

— PubChem BioAssay (NCI)
